Assay results as given in patent publication US20160213635A1, “COMPOSITIONS USEFUL IN THE PREVENTION OR TREATMENT OF SKIN CANCER” (GIULIANI S.P.A., priority 2013, published 2016).

Tested on: NHKs cells
Assay: Flow cytometric (annexin V) assessment of UV induced apoptosis after pre-treatment with G01
Assay type: cell-based, human
Conditions: pre-treatment 90 μM 24±2 h; UVA 25 J/cm^2, UVB 80 mJ/cm^2; 24 h
Procedure: The NHKs cells were plated in the specific culture medium and maintained in culture for 24±2 h to allow adhesion to the plate. Each experimental condition was plated in duplicate. The cells were treated for 24±2 h with G01, in a concentration of 90 μM. Subsequently, the plates identified as +UVA, +G01/UVA, +UVB, and +G01/UVB were respectively exposed, in the irradiation medium, to doses of UVA of 25 J/cm^2 and UVB of 80 mJ/cm^2, while the control plates (Ctr) and those treated only with the compound under examination (G01) were maintained in the dark and at room temperature for a period of time equal to the irradiation time. The irradiation medium was then replaced with the culture medium. Based on the preliminary results obtained on a broader time range, a post-treatment time of 24 h was selected, after which the plates were processed according to the procedure given in the user manual of the specific kit for annexin V flow cytometric analysis (Annexin V), a typical assay to detect the early stages of apoptosis. The positivity for annexin V in each condition tested (treatment with G01 and/or UVA/UVB irradiation) was compared with the positivity in the control cells.

For `C/C=C/C=C/C=C/C(=O)O` [G01, 2,4,6-trans-octatrienoic acid], the “apoptosis (positivity for annexin V) induced by UVA and UVB” value was “reduce the apoptosis”.
